In patent US5709816A, “Singlet oxygen quenchers and external compositions containing the same” (Kao Corporation, priority 1899, dated 1998):

assay: Quenching rate constant of singlet oxygen (Rose Bengal photosensitization, Stern-Volmer method); type: biochemical; settings: kq; ethanol solution, 50 μM Rose Bengal; singlet oxygen lifetime taken as 10 μs
Text: Method for measuring the quenching rate constant of singlet oxygen:
The apparatus used for measuring singlet oxygen included the following parts.
(1) Light source: Xenon lamp (150 W) (Atago Bussan K.K.)
(2) Filters on the excitation side: Water filter (optical path: 50 mm), Color glass filters (HA-15, HA-30, G-533, manufactured by Hoya K.K.)
(3) Sample: Square quartz cell (2×10×50 mm)
(4) Filters on the detection side: Color glass filter (IR-85, manufactured by Hoya K.K.), Interference filter (Nippon Shinku-Kogaku K.K.)
(5) Spectrometer and detector: Spectrometer (HR-320, Jovin Yvon Co.), Germanium (Ge) detector (EO-817L, a type using liquid nitrogen as a coolant, North coast Scientic Corporation)
(6) Amplifier: Light chopper (5584, NF Co.), Frequency filter (E-3201B, NF Co.), Super low noise amplifier (SA-200F3, NF Co.), Digital storage oscilloscope (2431L, SONY Tektronix Co.)
(7) Recording section: Personal computer (PC-9801 BA, NEC Corporation), GP-IB interface
(8) Oxygen concentration control unit: High-pressure oxygen cylinder
Using this apparatus, light was irradiated onto a system which is known to produce singlet oxygen through photochemical sensitization. The wavelength of the light was within an appropriate absorption range of the photosensitizer employed. weak emission in the near infrared region, which is specific to singlet oxygen, was measured for its intensity I. Subsequently, the emission obtained when a test substance was added to the same system was measured. From the decrease in emission intensity I, the quenching rate constant of singlet oxygen of the test substance could be measured in accordance with the Stern-Volmer method. However, since some substances react with the photochemical sensitization system to cause errors in the measurements, the method described by R. H. Young et al., Photochem. Photobiol., vol. 17, p. 233 (1973) was applied to correct this contribution quenching.
A 50 μM ethanol solution of Rose Bengal in a 400 μl square quartz cell was used as a test substance.
First, the light within 490-590 nm, which is appropriate for the maximum absorption wavelength of Rose Bengal, was irradiated onto the cell containing the test substance.
Similarly, another system was subjected to measurement in which a typical singlet oxygen quencher, β-carotene, sodium azide,or 1,4-diazabicyclo[2.2.2]octane, had been added.
Measurement of the quenching rate constant of singlet oxygen: An ethanol solution of each of compounds obtained in the above-described Synthesis Examples and N-phenyldiethanolamine (compound (36)), with Rose Bengal, as a conventional photosensitizer, was used for the measurement of the quenching rate constants of singlet oxygen.
First, emission intensity I of a mixture solution containing 50 μM of Rose Bengal and the above compounds were measured under saturated air conditions. The ratio IOair /Iair was calculated, wherein Iair represents the emission intensity measured for a solution with a test substance at a concentration of Cq (Iair), and Oair represents the emission intensity measured for a solution without test substance. Next, under saturated oxygen conditions, emission intensity was measured for a solution with a test substance at the same concentration Cq (I302). Using these emission intensities, the correction term Fair was obtained in accordance with the following equation.
Interference attributed to the test substance with respect to the photosensitization reaction system was corrected by multiplying IOair /Iair by Fair.
Using the following equation:
(IOair /Iair)'=1+kq ·.tau.·Cq

Row | Structure (SMILES) | Extinction rate constant of singlet oxygen [M⁻¹ s⁻¹]
1 | CCCCN(CC(O)COC)c1ccc(C)c(C)c1 (stereo not shown) [Compound (32), N-n-butyl-N-(2-hydroxy-3-methoxypropyl)-3,4-xylidine] | 1.6e+08
2 | Cc1ccc(N(C)CC(O)CO)cc1 (stereo not shown) [Compound (33), N-(2,3-dihydroxypropyl)-N-methyl-p-toluidine] | 1.4e+08
3 | CCCCN(CC(O)CO)c1ccc(C)c(C)c1 (stereo not shown) [Compound (34), N-n-butyl-N-(2,3-dihydroxypropyl)-3,4-xylidine] | 1.7e+08
4 | COCC(O)CN(C)c1ccc(OC)cc1 (stereo not shown) [Compound (1), N-(2-hydroxy-3-methoxypropyl)-N-methyl-p-anisidine] | 2.2e+08
5 | CCCCN(CC(O)COC)c1ccccc1 (stereo not shown) [Compound (6), N-n-butyl-N-(2-hydroxy-3-methoxypropyl)aniline] | 1.1e+08
6 | COCC(O)CN(CC(O)COC)c1ccc(C)cc1 (stereo not shown) [Compound (4), N,N-bis(2-hydroxy-3-methoxypropyl)-p-toluidine] | 2.1e+08
7 | CCCCCCCCN(CC(O)COC)c1ccc(OC)cc1 (stereo not shown) [Compound (3), N-(2-hydroxy-3-methoxypropyl)-N-n-octyl-p-anisidine] | 2.3e+08
8 | CCCCN(CC(O)COC)c1ccc(C)cc1 (stereo not shown) [Compound (5), N-n-butyl-N-(2-hydroxy-3-methoxypropyl)-p-toluidine] | 1.5e+08
9 | CCCCCCCCN(CC(O)CO)c1ccc(OC)cc1 (stereo not shown) [Compound (35), N-(2,3-dihydroxypropyl)-N-octyl-p-anisidine] | 2.2e+08
10 | CCCCN(CC(O)COC)c1ccc(OC)cc1 (stereo not shown) [Compound (2), N-n-butyl-N-(2-hydroxy-3-methoxypropyl)-p-anisidine] | 2e+08
